One block for each molecule: values may come before it.
Experiments:
[1] = Pharmacokinetics of I.V. bolus and continuous infusion (Alzet pump) in mice; assay type: in vivo, Mouse
Procedure: (§2) Mice received elesclomol salt administered in a single I.V. bolus dose of 50 mg/kg. Mice also received elesclomol salt administered by continuous infusion via Alzet pump. The pump was filled with a 40 mg/mL solution of elesclomol salt, and the solution was administered at 1 ml/hr, for a total daily dose of 32 mg/kg/day, based on average body weight of 30 g. The solution was delivered continuously for 7 days, and exposure was calculated from plasma levels collected at 70 hours post pump implantation.

[2] = tested on: mitochondria isolated from HL-60 cells; assay: MitoSox Red ROS assay in isolated mitochondria; assay type: cell-based, human; conditions: HL-60-derived mitochondria, 0.2 μM and 1 μM, 30 minutes
Procedure: Mitochondria isolated from PBMCs or from HL-60 cells were treated for 30 minutes with either DMSO, free copper (CuCl2) at the concentrations of 0.2 μM and 1 μM, disulfiram-Cu complex (DSF-Cu) at the concentrations of 0.2 μM and 1 μM, and elesclomol-Cu complex at the concentrations of 0.2 μM and 1 μM. Subsequent to incubation, ROS levels were measured by MitoSox Red. The results of the MitoSox Red assay are shown in FIG. 2 as mean±SD of experiments with PBMCs isolated from three independent donors or with three individual experiments with HL-60.

HL-60 cells [3] = assay: Subcellular copper content by BCA assay after elesclomol-Cu treatment; assay type: cell-based, human; conditions: HL-60 cells treated for 2 hours
Procedure: (§1) Human peripheral blood mononuclear cells (PBMCs) from 3 independent donors and human promyelotic tumor cell line HL-60 were treated with the elesclomol-Cu complex for 2 hours. Cells were subsequently fractionated into cytosolic, nuclear or mitochondrial fractions and the subcellular copper content was determined by BCA assay.

[4] = tested on: peripheral blood mononuclear cells (PBMCs); assay: as above; assay type: cell-based, human; conditions: PBMCs from 3 donors treated for 2 hours
Procedure: as §1

[5] = Pharmacokinetics of 1-hour infusion in humans; conditions: Human, 200 mg/m^2
Procedure: as §2

[6] = Mouse toxicity study of elesclomol salt continuously administered via Alzet pump; design: species or system mice of strain CD1; conditions: in vivo
Procedure: A total of 15 mice of strain CD1 were used for the toxicity study, of which 10 were in the elesclomol salt treatment group, and 5 were in the control group. Alzet pump was filled with a total of 200 μl of infusion solution and implanted subcutaneously within 1-2 hours. The infusion solution was continuously delivered for 7 days, and the pump was replaced with a new pump at day 8.

HL-60 cells [7] = assay: Cellular copper and elesclomol levels after elesclomol incubation; assay type: cell-based, human; conditions: 100 nM, 3 hours
Procedure: PBMCs and HL-60 cells were incubated with a vehicle (DMSO) or with 100 nM elesclomol for 3 hours. Subsequent to incubation, cellular copper levels and elesclomol levels for PBMCs and HL-60 cells were determined and are shown in FIG. 3.

[8] = tested on: HL-60 cells enriched with ^63Cu; assay: Cellular 63Cu and 65Cu levels by ICP-MS; assay type: cell-based, human; conditions: 100 nM, 0, 0.5, 3 and 9 hours, 10% FBS medium
Procedure: A complex of elesclomol with ^65Cu was prepared. HL-60 cells enriched with ^63Cu were treated with 100 nM elesclomol-^65Cu or 100 nM free ^65Cu for 0, 0.5, 3 and 9 hours in 10% FBS medium. Cellular ^63Cu and ^65Cu levels were measured by inductively coupled plasma mass spectroscopy (ICP-MS).

Exposure/day ([1]; mouse, in vivo, 32 mg/kg/day): 516 h * ng/mL/d
Exposure/day ([1]; mouse, in vivo, iv, 50 mg/kg): 670 h * ng/mL/d
SMILES: CN1C(c2ccccc2)=[S][Cu]23[S]=C(c4ccccc4)N(C)[N]2C(=O)CC(=O)[N]13 [Elesclomol-Cu]
ROS levels (MitoSox Red) [2]: induces ROS in HL-60-derived mitochondria
relative copper levels in the nuclear, cytosolic and mitochondrial fractions (HL-60 cells [3]): copper levels increased only in HL-60 cells, particularly, in the mitochondrial fraction
relative copper levels in the nuclear, cytosolic and mitochondrial fractions [4]: increased only in HL-60 cells

SMILES: CN(NC(=O)CC(=O)NN(C)C(=S)c1ccccc1)C(=S)c1ccccc1 [elesclomol, Elesclomol]
Exposure/day ([1]; Mouse, elesclomol salt I.V. bolus, 50 mg/kg): 5140 h * ng/mL/d
Exposure/day ([1]; Mouse, elesclomol salt by continuous infusion (pump), 32 mg/kg/d, calculated from plasma levels at 70 hours post pump implantation): 1183 h * ng/mL/d
Exposure/day [5]: 4938 h * ng/mL/d
overall toxicity / adverse effects [6]: not associated with acute toxicity
cellular copper levels (HL-60 cells [7]; HL-60 cells): remarkably and selectively elevated
cellular elesclomol levels (HL-60 cells [7]; HL-60 cells compared with PBMCs): slightly lower than that in PBMCs

SMILES: CN1C(c2ccccc2)=[S][65Cu]23[S]=C(c4ccccc4)N(C)[N]2C(=O)CC(=O)[N]13 [elesclomol-^65Cu]
accumulation of ^63Cu in cells [8]: cause accumulation of ^63Cu in HL-60 cancer cells
amount of copper accumulated in the cells versus length of exposure [8]: directly proportional to the length of time

Source: patent publication US20140329892A1, “ADMINISTRATION OF A BIS(THIOHYDRAZIDE AMIDE) COMPOUND FOR TREATING CANCERS” (priority 2011, published 2014)
